What follows are compounds tested on Smad3-responsive luciferase reporter (SBE4-Luc).
Experimental: Human primary tubular cells (PromoCell GmbH, Heidelberg, Germany) were cultured in Renal Epithelial Cell Growth Medium-2 (Promocell GmbH) with supplements according to manufacturer's protocol human primary renal tubular epithelial cells with <5 passages were used for all studies. For HIV infection of hRTECs, pNL4-3:ΔG/P-EGFP, a gag/poi-deleted HIV-1 construct that contains EGFP in the gag open reading frame, and pHR-IRES-EGFP, a control EGFP construct, were used to generate the VSV-G pseudotyped virus. Cells were infected with HIV pseudotyped virus or control virus for 2 days before the treatment with test compound.
Renilla luciferase reporter plasmid (pRL) was purchased from Promega.
Forty-eight hours post-transfection cells were treated with assigned concentrations of test compound together with or without 10 ng/ml TGF-β1 for 16 hours. Luciferase activities were measured using the Dual-Luciferase Reporter Assay kit (Promega, #E1910). Data are expressed as the ratio of firefly luciferase activity over Renilla luciferase activity. […] 48 hours after transfection, luciferase activities were measured.
In the case of `CCOC(=O)c1ccc(-c2noc(-c3cnc4cc(Br)ccc4c3)n2)cc1` [Example 5, ethyl 4-(5-(7-bromoquinolin-3-yl)-1,2,4-oxadiazol-3-yl)benzoate], the “Luciferase Activity (Relative to DMSO control) −TGFβ” value is reported as 0.512. For `COc1ccc2cc(-c3nc(-c4ccc([B-](F)(F)F)cc4)no3)cnc2c1` [Example 4], the “Luciferase Activity (Relative to DMSO control) −TGFβ” value was 0.366. In the case of `CCOC(=O)c1ccc(-c2noc(-c3cnc4cc(Cl)ccc4c3)n2)cc1` [Example 2], the “Luciferase Activity (Relative to DMSO control) −TGFβ” value is reported as 0.660. For `CCOC(=O)c1ccc(-c2noc(-c3cnc4cc(B5OC(C)(C)C(C)(C)O5)ccc4c3)n2)cc1` [Example 8, ethyl 4-(5-(7-(4,4,5,5-tetramethyl-1,3,2-dioxaborolan-2-yl)quinolin-3-yl)-1,2,4-oxadiazol-3-yl)benzoate], the “Luciferase Activity (Relative to DMSO control) −TGFβ” value was 0.818. `COc1ccc2cc(-c3nc(-c4ccc(B5OC(C)(C)C(C)(C)O5)cc4)no3)cnc2c1` [Example 3, 5-(7-methoxyquinolin-3-yl)-3-(4-(4,4,5,5-tetramethyl-1,3,2-dioxaborolan-2-yl)phenyl)-1,2,4-oxadiazole] was tested, and the “Luciferase Activity (Relative to DMSO control) −TGFβ” value was 0.730. `COc1ccc2cc(-c3nc(-c4cccc(Br)n4)no3)cnc2c1` [Example 7] was tested, and the “Luciferase Activity (Relative to DMSO control) −TGFβ” value was 0.784. For `CC1(C)OB(c2ccc3cc(-c4nc(-c5ccc(C(=O)O)cc5)no4)cnc3c2)OC1(C)C` [Example 6, 4-(5-(7-(4,4,5,5-tetramethyl-1,3,2-dioxaborolan-2-yl)quinolin-3-yl)-1,2,4-oxadiazol-3-yl)benzoic acid], the “Luciferase Activity (Relative to DMSO control) −TGFβ” value was 0.722.

Source: US10669266B2, “Oxadiazole inhibitors of HIPK2 for treating kidney fibrosis” (ICAHN SCHOOL OF MEDICINE AT MOUNT SINAI, priority 2017, dated 2020)
